Data on seven compounds can be found in ChEMBL document CHEMBL1777759, “Synthesis of benzologues of Nitazoxanide and Tizoxanide: a comparative study of their in vitro broad-spectrum antiprotozoal activity” (Bioorg Med Chem Lett, 2011).

A value given as a limit tells only on which side of the number the result lay.

Series [1] is described as follows: Cytotoxicity against african green monkey Vero cells after 72 hrs by MTT assay. The class given is cell-based. To be noted: chlorocebus sabaeus.
For the next series, the system named is Leishmania mexicana. Description: Antileishmanial activity against Leishmania mexicana MHOM/MX/ISETGS promastigotes after 72 hrs by neubauer chamber. The class given is functional, organism-based.
The test system of the next series is Plasmodium berghei. In words: Antimalarial activity against Plasmodium berghei schizonts isolated from parasitized erythrocytes infected Wistar rat measured 16 hrs post compound exposure. The class given is functional, organism-based.
The test system of series [2] is Trypanosoma cruzi. Description: Antitrypanosomal activity against Trypanosoma cruzi MHOM/MX/1994/Ninoa epimastigotes after 72 hrs by neubauer chamber. The class given is functional, organism-based.
A short description of series [3]: Selectivity index, ratio of CC50 for african green monkey Vero cells to IC50 for Leishmania mexicana MHOM/MX/ISETGS. The class given is functional.
For another series, the system named is Giardia intestinalis. In words: Antiprotozoan activity against Giardia intestinalis IMSS:0696:1 trophozoites after 48 hrs. The settings on record: Giardia duodenalis, IMSS:0696:1, 48 h. The class given is functional, organism-based.
The nature of series [4]: Selectivity index, ratio of CC50 for african green monkey Vero cells to IC50 for Giardia intestinalis IMSS:0696:1. The class given is functional.
The nature of series [5]: Selectivity index, ratio of CC50 for african green monkey Vero cells to IC50 for Trypanosoma cruzi MHOM/MX/1994/Ninoa. The class given is functional.
Series [6] relates to Entamoeba histolytica. Description: Ratio of IC50 for pentamidine to compound for Entamoeba histolytica HM1-IMSS. The class given is functional.
A short description of series [7]: Selectivity index, ratio of CC50 for african green monkey Vero cells to IC50 for Trichomonas vaginalis GT3. The class given is functional.
A further series relates to Trichomonas vaginalis. In words: Antiprotozoan activity against Trichomonas vaginalis GT3 trophozoites after 48 hrs. The class given is functional, organism-based. To be noted: GT3, 48 h.
A short description of series [8]: Selectivity index, ratio of CC50 for african green monkey Vero cells to IC50 for Entamoeba histolytica HM1-IMSS. The class given is functional.
Series [9] is described as follows: Selectivity index, ratio of CC50 for african green monkey Vero cells to IC50 for Plasmodium berghei. The class given is functional.
Series [10] concerns Entamoeba histolytica. Description: Antiprotozoan activity against Entamoeba histolytica HM1-IMSS trophozoites after 48 hrs. The class given is functional, organism-based.
In series [11] the test system is Trypanosoma cruzi. In words: Ratio of IC50 for benzanidazole to compound for Trypanosoma cruzi MHOM/MX/1994/Ninoa. The class given is functional.

For `O=C(Cn1ccnc1[N+](=O)[O-])NCc1ccccc1` [BENZNIDAZOLE], the CC50 – broadly, the concentration giving 50% cytotoxicity – at 72 h in series [1] came to 14 µM. Besides, the IC50 (commonly the midpoint of a concentration-inhibition curve) is greater than 50 µM in the series on Leishmania mexicana and 4.07 µM in the series on Plasmodium berghei.

In series [1], `Cc1ncc([N+](=O)[O-])n1CCO` [METRONIDAZOLE] showed a half-maximal cytotoxic concentration (CC50) at 72 h of 387 µM. Besides, the half-inhibitory concentration (IC50) in the series with Leishmania mexicana, with Trypanosoma cruzi [2] and in the series on Plasmodium berghei was greater than 50 µM each time.

Compound `CC(=O)Oc1ccccc1C(=O)Nc1nc2ccc([N+](=O)[O-])cc2s1` yielded a CC50 at 72 h in series [1] of 683 µM. Also, the IC50 amounted to 1.35 µM in the series on Leishmania mexicana; 0.297 µM in the series with Giardia intestinalis; 4.89 µM with Trypanosoma cruzi [2]; 2.42 µM in the series with Plasmodium berghei; 0.842 µM with Trichomonas vaginalis; 3.52 µM in the series with Entamoeba histolytica [10]. The “Ratio CC50/IC50” value worked out at 506 in series [3]; 2300 in series [4]; 140 in series [5]; 811 in [7]; 194 in [8]; 282 in [9]. The results for the “Ratio IC50” value with Entamoeba histolytica [6] and in the series on Trypanosoma cruzi [11] were 10 and 7, respectively.

For `O=C(Nc1ncc([N+](=O)[O-])s1)c1ccccc1O` [TIZOXANIDE], in series [1], the cytotoxic concentration (CC50) at 72 h came to 388 µM. Also, the concentration for half-maximal inhibition (IC50) amounted to 6.19 µM in the series with Leishmania mexicana; 0.716 µM with Giardia intestinalis; 17.5 µM in the series on Trypanosoma cruzi [2]; 5.24 µM in the series with Plasmodium berghei; 0.211 µM in the series with Trichomonas vaginalis; 1.23 µM in the series with Entamoeba histolytica [10]. Moreover, the “Ratio CC50/IC50” value was found to be 63 in series [3]; 542 in [4]; 22 in series [5]; 1839 in [7]; 316 in [8]; 74 in [9].

In series [1], `N=C(N)c1ccc(OCCCCCOc2ccc(C(=N)N)cc2)cc1` [PENTAMIDINE] displayed a half-maximal cytotoxic concentration (CC50) at 72 h of 47 µM. Moreover, the concentration for half-maximal inhibition (IC50) in the series with Trypanosoma cruzi [2] is greater than 50 µM; in the series with Plasmodium berghei, 2.94 µM.

Consider `CC(=O)Oc1ccccc1C(=O)Nc1ncc([N+](=O)[O-])s1` [NITAZOXANIDE], for which, in [1], it took 833 µM to reach half-maximal cytotoxicity (CC50 at 72 h). Also, the concentration for half-maximal inhibition (IC50) worked out at 6.18 µM in the series on Leishmania mexicana; 1.21 µM in the series with Giardia intestinalis; 18.7 µM with Trypanosoma cruzi [2]; 3.89 µM in the series with Plasmodium berghei; 0.068 µM in the series with Trichomonas vaginalis; 0.504 µM in the series with Entamoeba histolytica [10]. The “Ratio CC50/IC50” value in [3] was determined as 135; in [4] it was 686; in series [5], 44; in series [7], 12250; in [8], 1653; in series [9], 214.

Take `O=C(Nc1nc2ccc([N+](=O)[O-])cc2s1)c1ccccc1O`: the CC50 at 72 h in series [1] was 607 µM. Moreover, the half-inhibitory concentration (IC50) in the series with Leishmania mexicana is greater than 50 µM; with Giardia intestinalis it was 0.59 µM; in the series on Trypanosoma cruzi [2], greater than 50 µM; in the series on Plasmodium berghei, 2.37 µM; with Trichomonas vaginalis, 2.15 µM; with Entamoeba histolytica [10], 8.02 µM. The “Ratio CC50/IC50” value in series [4] is on record as 1029; in [7], 283; in series [8], 76; in series [9], 256.
